Tests used:
Type in all cases: cell-based
CRBN = target: T1, CRBN (Homo sapiens, UniProt Q96SW2); assay: Competition Assay: MAPPIT-like, competition with trimethoprim-lenalidomide hybrid ligand for binding to CRBN in HEK293T cells; conditions: protocol and reagents of Example 1; read-out: IC50 Competition
T1 construct: expressed in transfected cells; host or cells: HEK293T

SALL4 = target: T2, SALL4 (Homo sapiens, UniProt Q96SW2+Q9UJQ4); assay: Recruitment Assay (MAPPIT-like): SALL4 recruitment, pSEL-SALL4+pMG1-CRBN; conditions: recruitment of SALL4, protocol of Example 2; read-out: EC50_SALL4
T2 construct: Full size proteins are fused for each of the target proteins tested; expressed in transfected cells; host or cells: HEK293T
Procedure: (§1) In this experimental set-up, cells are transfected with a construct encoding a CRBN-fusion protein and another one encoding a substrate-fusion protein. Test compound activity is assessed with increasing concentrations of test compounds (dose-response studies) to monitor the ability to promote CRBN-ligand-induced protein interaction.
(§2) Full size proteins are fused for each of the target proteins tested, except in the case of IKZF1 where isoform 7 is used, and BRD4, where isoform 3 is applied. For the study, the following construct combinations are used: IKZF1 recruitment: pSEL-CRBN+pMG1-IKZF1(isoform 7); ASS1 recruitment: pSEL-CRBN+pMG1-ASS1; SALL4 recruitment: pSEL-SALL4+pMG1-CRBN; DHFR recruitment: pCLG-DHFR+pMG1-CRBN; ESR1 recruitment: pSEL-CRBN+pMG1-ESR1; BRD4 recruitment: pSEL-CRBN+pMG1-BRD4(isoform 3). Cells are treated with erythropoietin (Epo; where pSEL-type receptor fusions constructs are used) or leptin (in the case pCLG-type receptor fusion constructs are applied) without or with the indicated dose of test compound at 24 hours after transfection. Luciferase activity is measured 24 hours after test compound treatment using the Luciferase Assay System kit (PROMEGA, Madison, Wis.) with an Ensight plate reader (PERKIN ELMER LIFE SCIENCES, Waltham, Mass.). Data points depict fold induction of the average luciferase activity of triplicate samples from Epo or leptin+test compound treated cells versus Epo or leptin only treated cells. Error bars represent standard deviations. Curves are fit using 4-parameter nonlinear regression in […] PRISM software.

ASS1 = target: T3, ASS1 (Homo sapiens, UniProt P00966+Q96SW2); assay: Recruitment Assay (MAPPIT-like): ASS1 recruitment, pSEL-CRBN+pMG1-ASS1; conditions: recruitment of ASS1, protocol of Example 2; for EC50: read-out: EC50_ASS1
T3 construct: Full size proteins are fused for each of the target proteins tested; expressed in transfected cells; host or cells: HEK293T
Procedure: as §1, §2

| Compound | IC50 (CRBN) [µM] | EC50 (SALL4) [µM] | EC50_ASS1 (M) (ASS1) | EC50 (ASS1) [µM] |
| --- | --- | --- | --- | --- |
| CC(C)OC1c2ccccc2C(=O)N1C1CCC(=O)NC1=O (centres unmarked) [3-(1-isopropoxy-3-oxo-isoindolin-2-yl)piperidine-2,6-dione] | 22.9 | 2.7 | – | – |
| O=C1CCC(N2C(=O)c3ccccc3C2NCc2ccccc2)C(=O)N1 (centres unmarked) [Compound C10239, 3-[1-(benzylamino)-3-oxo-isoindolin-2-yl]piperidine-2,6-dione] | – | 1.16 | – | – |
| O=C1CCC(N2Cc3ccc(NCC(=O)NC4CCOCC4)cc3C2=O)C(=O)N1 (centres unmarked) [Compound C12693, 2-[[2-(2,6-dioxo-3-piperidyl)-3-oxo-isoindolin-5-yl]amino]-N-tetrahydropyran-4-yl-acetamide] | 8.33 | 2.62 | – | – |
| O=C1CCC(N2Cc3ccc(NCC(=O)NC4CCOC4)cc3C2=O)C(=O)N1 (centres unmarked) [Compound C12694, 2-[[2-(2,6-dioxo-3-piperidyl)-3-oxo-isoindolin-5-yl]amino]-N-tetrahydrofuran-3-yl-acetamide] | – | 3.43 | – | – |
| Cc1ccc2nnn(C3CCC(=O)NC3=O)c(=O)c2c1 (centres unmarked) [Compound C16463, 3-(6-methyl-4-oxo-1,2,3-benzotriazin-3-yl)piperidine-2,6-dione] | 2.67 | 0.772 | – | – |
| Cc1ccc2c(=O)n(C3CCC(=O)NC3=O)nnc2c1 (centres unmarked) [Compound C17800, 3-(7-methyl-4-oxo-1,2,3-benzotriazin-3-yl)piperidine-2,6-dione] | 21.9 | 0.904 | – | – |
| CCOC(=O)Nc1cccc2c1CN(C1CCC(=O)NC1=O)C2=O (centres unmarked) [Compound C22622, ethyl N-[2-(2,6-dioxo-3-piperidyl)-1-oxo-isoindolin-4-yl]carbamate] | 0.225 | 0.121 | >> | – |
| O=C1CCC(N2Cc3cccc(F)c3C2=O)C(=O)N1 (centres unmarked) [Compound C23066, 3-(7-fluoro-1-oxo-isoindolin-2-yl)piperidine-2,6-dione] | 0.248 | 0.0882 | >> | – |
| Cc1ccc2c(c1)C(=O)N(C1CCC(=O)NC1=O)C2 (centres unmarked) [Compound C28620, 3-(6-methyl-1-oxo-isoindolin-2-yl)piperidine-2,6-dione] | 0.178 | 0.27 | – | – |
| O=C1CCC(N2Cc3ccc(O)cc3C2=O)C(=O)N1 (centres unmarked) [Compound C28928, 3-(6-hydroxy-1-oxo-isoindolin-2-yl)piperidine-2,6-dione] | – | – | >> | – |
| CC(=O)Nc1ccc2c(c1)CN(C1CCC(=O)NC1=O)C2=O (centres unmarked) [Compound C29361, N-[2-(2,6-dioxo-3-piperidyl)-1-oxo-isoindolin-5-yl]acetamide] | 1.43 | 0.186 | >> | – |
| CC(=O)NC1c2ccccc2C(=O)N1C1CCC(=O)NC1=O (centres unmarked) [Compound C33779, N-[2-(2,6-dioxo-3-piperidyl)-3-oxo-isoindolin-1-yl]acetamide] | 49.4 | 3.03 | – | – |
| CC(=O)NCCNc1ccc2c(c1)CN(C1CCC(=O)NC1=O)C2=O (centres unmarked) [Compound C35745, N-[2-[[2-(2,6-dioxo-3-piperidyl)-1-oxo-isoindolin-5-yl]amino]ethyl]acetamide] | 11.2 | 2.63 | – | – |
| O=C1CCC(N2Cc3cc(NCCNC(=O)Nc4ccccc4)ccc3C2=O)C(=O)N1 (centres unmarked) [Compound C35751, 1-[2-[[2-(2,6-dioxo-3-piperidyl)-1-oxo-isoindolin-5-yl]amino]ethyl]-3-phenyl-urea] | 0.486 | 0.232 | – | 1.45 |
| CCOC(=O)NCCNc1ccc2c(c1)CN(C1CCC(=O)NC1=O)C2=O (centres unmarked) [Compound C35754, ethyl N-[2-[[2-(2,6-dioxo-3-piperidyl)-1-oxo-isoindolin-5-yl]amino]ethyl]carbamate] | 0.737 | 0.278 | >> | – |
| NC(=O)c1cccc(NC(=O)CNc2ccc3c(c2)CN(C2CCC(=O)NC2=O)C3=O)c1 (centres unmarked) [Compound C35811, 3-[[2-[[2-(2,6-dioxo-3-piperidyl)-1-oxo-isoindolin-5-yl]amino]acetyl]amino]benzamide] | 2.44 | 0.641 | >> | – |
| O=C(O)CNc1cccc2c1C(=O)N(C1CCC(=O)NC1=O)C2 (centres unmarked) [Compound C47998, 2-[[2-(2,6-dioxo-3-piperidyl)-3-oxo-isoindolin-4-yl]amino]acetic acid] | 6.59 | 2.17 | – | – |
| O=C1CCC(N2Cc3ccc(-c4ccccc4)cc3C2=O)C(=O)N1 (centres unmarked) [Compound C48018, 3-(1-oxo-6-phenyl-isoindolin-2-yl)piperidine-2,6-dione] | 0.228 | 0.395 | – | – |
| O=C1CCC(N2C(=O)C3=C(C2=O)c2ccccc2CC3)C(=O)N1 (centres unmarked) [Compound C64340, 2-(2,6-dioxo-3-piperidyl)-4,5-dihydrobenzo[e]isoindole-1,3-dione] | 2500 | 1.49 | – | – |
| O=C1CCC(N2Cc3cc(Nc4ncccn4)ccc3C2=O)C(=O)N1 (centres unmarked) [Compound C80369, 3-[1-oxo-5-(pyrimidin-2-ylamino)isoindolin-2-yl]piperidine-2,6-dione] | 0.0415 | – | – | 1.29 |
| O=C1CCC(N2Cc3cc(Nc4ncnc5ccccc45)ccc3C2=O)C(=O)N1 (centres unmarked) [Compound C80373, 3-[1-oxo-5-(quinazolin-4-ylamino)isoindolin-2-yl]piperidine-2,6-dione] | 0.892 | – | >> | – |
| O=C1CCC(N2Cc3ccc(NC(=O)c4cnc5nccn5c4)cc3C2=O)C(=O)N1 (centres unmarked) [Compound C80396, N-[2-(2,6-dioxo-3-piperidyl)-3-oxo-isoindolin-5-yl]imidazo[1,2-a]pyrimidine-6-carboxamide] | 2.63 | 1.38 | – | – |
| CC(Nc1ccc2c(c1)C(=O)N(C1CCC(=O)NC1=O)C2)C(=O)O (centres unmarked) [Compound C84970, 2-[[2-(2,6-dioxo-3-piperidyl)-3-oxo-isoindolin-5-yl]amino]propanoic acid] | 1.42 | 1.01 | – | – |
| O=C1CCC(N2C(=O)c3ccccc3C2=O)C(=O)N1 (centres unmarked) [THL, Thalidomide, reference compound] | – | – | >> | – |

Continued, values first:

| IC50 (CRBN) [µM] | EC50 (SALL4) [µM] | EC50_ASS1 (M) (ASS1) | EC50 (ASS1) [µM] | Compound |
| --- | --- | --- | --- | --- |
| – | 1.25 | >> | – | Cc1nc2ccc(C#N)c(N)c2c(=O)n1C1CCC(=O)NC1=O (centres unmarked) [Compound C10001, 5-amino-3-(2,6-dioxo-3-piperidyl)-2-methyl-4-oxo-quinazoline-6-carbonitrile] |
| 7.81 | 1.46 | >> | – | CN(C)C1c2ccccc2C(=O)N1C1CCC(=O)NC1=O (centres unmarked) [Compound C10981, 3-[1-(dimethylamino)-3-oxo-isoindolin-2-yl]piperidine-2,6-dione] |
| 2.29 | 0.517 | >> | – | O=C1CCC(n2nnc3ccccc3c2=O)C(=O)N1 (centres unmarked) [Compound C21223, 3-(4-oxo-1,2,3-benzotriazin-3-yl)piperidine-2,6-dione] |
| 1.67 | 0.873 | >> | – | COCC(=O)Nc1cccc2c1CN(C1CCC(=O)NC1=O)C2=O (centres unmarked) [Compound C22564, N-[2-(2,6-dioxo-3-piperidyl)-1-oxo-isoindolin-4-yl]-2-methoxy-acetamide] |
| 1.3 | 1.14 | – | – | CN(C)CC(=O)Nc1cccc2c1CN(C1CCC(=O)NC1=O)C2=O (centres unmarked) [Compound C22586, 2-(dimethylamino)-N-[2-(2,6-dioxo-3-piperidyl)-1-oxo-isoindolin-4-yl]acetamide] |
| 1.73 | 0.595 | – | – | N#Cc1ccc2c(c1)CN(C1CCC(=O)NC1=O)C2=O (centres unmarked) [Compound C48005, 2-(2,6-dioxo-3-piperidyl)-1-oxo-isoindoline-5-carbonitrile] |
| 0.173 | 0.122 | – | – | O=C1CCC(N2Cc3cc(-c4ccccc4)ccc3C2=O)C(=O)N1 (centres unmarked) [Compound C48016, 3-(1-oxo-5-phenyl-isoindolin-2-yl)piperidine-2,6-dione] |
| 0.0291 | – | >> | – | Cc1ccc(NC(=O)NCc2cc(C)c3c(c2)CN(C2CCC(=O)NC2=O)C3=O)cc1Cl (centres unmarked) [Compound C58181, 1-(3-chloro-4-methyl-phenyl)-3-[[2-(2,6-dioxo-3-piperidyl)-7-methyl-1-oxo-isoindolin-5-yl]methyl]urea] |
| – | 0.559 | – | – | O=C1CCC(N2Cc3cc(Nc4ncc5[nH]cnc5n4)ccc3C2=O)C(=O)N1 (centres unmarked) [Compound C80376, 3-[1-oxo-5-(7H-purin-2-ylamino)isoindolin-2-yl]piperidine-2,6-dione] |
| 0.163 | 0.152 | – | – | O=C1CCC(N2Cc3ccc(Nc4ncc5c(n4)COC5)cc3C2=O)C(=O)N1 (centres unmarked) [Compound C80391, 3-[6-(5,7-dihydrofuro[3,4-d]pyrimidin-2-ylamino)-1-oxo-isoindolin-2-yl]piperidine-2,6-dione] |
| 19.6 | 4.82 | – | – | O=C1CCC(N2Cc3ccccc3C2)C(=O)N1 (centres unmarked) [Compound C87699, 3-isoindolin-2-ylpiperidine-2,6-dione] |

From US20230099031A1, “BIFUNCTIONAL AGENTS FOR PROTEIN RECRUITMENT AND/OR DEGRADATION” (Orionis Biosciences, Inc., priority 2019, published 2023)
